Experiment: Pharmacokinetic study in normal and arthritic model rats after oral administration of APR extract (UPLC-MS/MS of plasma)
Details: for Cmax / MRT last / half-life / Tmax: Sprague-Dawley, rat, po, 4.1 mL/kg; for Cmax: C max; for MRT last: MRT0-t; for Tmax: t max
Protocol: One hundred grams of the APR sample was extracted by reflux with 800 mL 50% ethanol/water (v/v) for 3 times (2 hours each time), then combined with the filtrate and concentrated under vacuum with heat, and the concentration of APR extract was 0.37 g/mL. All the sample solutions were stored at 4°C before analysis.
Twelve SD rats were randomly divided into two groups (n = 6) and named as the model group and the normal group, respectively. The arthritic model was established by injecting 0.1 mL of complete Freund's adjuvant in rats. As a control, 0.1 mL of saline was injected. After 7 days, the plasma levels of MDA and TNF-α in normal and model rats were measured by an enzyme-linked immunosorbent assay kit to determine whether the modeling was successful.
The ultrahigh performance liquid chromatography (Thermo Scientific™, Vanquish™, (Waltham, MA, USA)) was used for the chromatographic analysis. UPLC separation was achieved on a Thermo Hypersil GOLD C18 column (100 mm × 2.1 mm, 1.9 μm), which was maintained at 35°C.
The UPLC was interfaced to a Thermo TSQ QUANTIS triple quadrupole mass spectrometer and equipped with an electrospray ionization (ESI) probe working in positive and negative ion exchange scanning mode.
Acetonitrile was used as a precipitation solvent, and protein precipitation was used to handle with the plasma samples. […] Then, the supernatant was dried in a nitrogen environment at 45°C, and the remaining residue was recombined with 100 μL 50% methanol aqueous and vortex for 1 min. Finally, 2 μL supernatant was injected into the UPLC-MS/MS system for analysis.

[1] = plasma, arthritic model rats (complete Freund's adjuvant), oral APR extract 4.1 mL/kg, mean ± SD, n = 6
[2] = plasma, normal rats, oral APR extract 4.1 mL/kg, mean ± SD, n = 6
[3] = plasma, t 1/2, arthritic model rats (complete Freund's adjuvant), oral APR extract 4.1 mL/kg, mean ± SD, n = 6
[4] = plasma, t 1/2, normal rats, oral APR extract 4.1 mL/kg, mean ± SD, n = 6
[5] = oral APR, concentration-time curve
[6] = in vivo, arthritic model rats (complete Freund's adjuvant), oral APR extract 4.1 mL/kg, plasma, mean ± SD, n = 6
[7] = in vivo, normal rats, oral APR extract 4.1 mL/kg, plasma, mean ± SD, n = 6

SMILES	Cmax [1] [ng/mL]	Cmax [2] [ng/mL]	MRT last [1] [h]	MRT last [2] [h]	half-life [3] [h]	half-life [4] [h]	Tmax [1] [h]	Tmax [2] [h]	change of AUC0-t in model rats compared with normal rats (model vs normal rats, oral APR)	change of Cmax in model rats compared with normal rats (model vs normal rats, oral APR)	change of CL in model rats compared with normal rats (model vs normal rats, oral APR)	change of MRT in model rats compared with normal rats (model vs normal rats, oral APR)	other results
O=C(/C=C/c1ccc(O)c(O)c1)O[C@@H]1[C@H](O)C[C@@](O)(C(=O)O)C[C@H]1OC(=O)/C=C/c1ccc(O)c(O)c1 [3,4-diCQA, isochlorogenic acid B]	79.7 ± 7.11	85.7 ± 8.14	19.8 ± 0.4	21.2 ± 0.73	84.5 ± 24.3	58 ± 12	0.29 ± 0.1	0.29 ± 0.1	decreased				
O=C(C=Cc1ccc(O)c(O)c1)OC1CC(O)(C(=O)O)CC(OC(=O)C=Cc2ccc(O)c(O)c2)C1O (stereo not drawn) [3,5-diCQA, isochlorogenic acid A]	405 ± 49.2	293 ± 47.7	18.8 ± 0.49	21.1 ± 0.68	59.5 ± 17.2	33.9 ± 14.3	0.18 ± 0.03	0.18 ± 0.03	decreased	increasing			change of AUC0-∞ in model rats compared with normal rats (model vs normal rats, oral APR): increasing; change of t1/2 in model rats compared with normal rats (model vs normal rats, oral APR): prolonging
COc1c2ccoc2cc2oc(=O)ccc12 [Bergapten, bergapten]	518 ± 42.9	383 ± 95.8	7.11 ± 0.09	9.4 ± 0.34	7.16 ± 0.41	9.41 ± 2.12	4.67 ± 1.03	3.67 ± 0.82			decreased	shortened	time of first plasma peak after administration of APR [5]: 5 min; time of second plasma peak after administration of APR [5]: 4 h
O=C(/C=C/c1ccc(O)c(O)c1)O[C@@H]1C[C@](O)(C(=O)O)C[C@@H](O)[C@H]1O [Chlorogenic acid, chlorogenic acid]	2760 ± 264		8.68 ± 0.52	5.95 ± 0.28	52 ± 13.2	27.9 ± 14.8	0.45 ± 0.1	0.54 ± 0.36	increased	increased		longer	change of t1/2 in model rats compared with normal rats (model vs normal rats, oral APR): longer; C max (normal rats, oral APR extract 4.1 mL/kg, plasma, mean ± SD, n = 6): 1669.61 ± 25.80 ng/mL
C/C=C(/C)C(=O)OC(C)(C)[C@@H]1Cc2c(ccc3ccc(=O)oc23)O1 [Columbianadin, columbianadin]	1500 ± 48.2	1680 ± 222	11.5 ± 0.87	12.3 ± 0.57	16.5 ± 4.83	16.4 ± 3.96	0.23 ± 0.03	0.23 ± 0.03			decreased		
CC(C)(O)[C@@H]1Cc2c(ccc3ccc(=O)oc23)O1 [Columbianetin, columbianetin]	2220 ± 168	3120 ± 242	12.1 ± 0.2	13.3 ± 0.36	6.07 ± 1.28	6.04 ± 0.12	9 ± 1.09	9.67 ± 0.82	decreased	decreased	increased	shortened	change of AUC0-∞ in model rats compared with normal rats (model vs normal rats, oral APR): decreased
O=C(/C=C/c1ccc(O)c(O)c1)O[C@H]1[C@H](O)C[C@](O)(C(=O)O)C[C@H]1O [Cryptochlorogenic acid, cryptochlorogenic acid]	189 ± 8.7	143 ± 4.63	19.5 ± 0.55	18.3 ± 0.46	48.4 ± 10.5	34.5 ± 17.6	0.45 ± 0.1	0.42 ± 0.12	increased	increased		longer	change of t1/2 in model rats compared with normal rats (model vs normal rats, oral APR): longer
CC(C)=CCOc1c2ccoc2cc2oc(=O)ccc12 [Isoimperatorin, isoimperatorin]	232 ± 21	224 ± 26.8	15.7 ± 0.65	15.1 ± 0.57	26.8 ± 5.46	26.9 ± 8.34	0.58 ± 0.2	0.58 ± 0.2					
O=C(C=Cc1ccc(O)c(O)c1)OC1CC(O)(C(=O)O)CC(O)C1O (stereo not drawn) [Neochlorogenic acid]	531 ± 24.1	420 ± 58.6	15.6 ± 0.26	15.6 ± 0.68	31.8 ± 10.2	39.9 ± 16.5	0.23 ± 0.03	0.2 ± 0.04					change in the pharmacokinetic parameters in normal and model rats (model vs normal rats, oral APR): no significant change
COc1ccc2ccc(=O)oc2c1CC=C(C)C [Osthol, osthol]	4560 ± 272	3640 ± 286	6.94 ± 0.42	6.53 ± 0.29	6.42 ± 0.69	13.4 ± 0.51	0.91 ± 0.2	1.16 ± 0.4			decreased		
O=c1ccc2cc3ccoc3cc2o1 [Psoralen, psoralen]	327 ± 42.5	210 ± 27.6	12.9 ± 0.22	14.3 ± 0.31	5.98 ± 0.44	9.8 ± 3.28	7.66 ± 0.81	8 ± 1.26			decreased	shortened	
COc1c2occc2cc2ccc(=O)oc12 [Xanthotoxin, xanthotoxin]													Cmax [6]: 528 ± 35 ng/mL; Cmax [7]: 554 ± 76 ng/mL; MRT last [6]: 10.3 ± 0.51 h; MRT last [7]: 10.7 ± 0.53 h; half-life (in vivo, t 1/2, arthritic model rats (complete Freund's adjuvant), oral APR extract 4.1 mL/kg, plasma, mean ± SD, n = 6): 14.2 ± 3.76 h; half-life (in vivo, t 1/2, normal rats, oral APR extract 4.1 mL/kg, plasma, mean ± SD, n = 6): 12.1 ± 1.73 h; Tmax [6]: 3.33 ± 1.03 h; Tmax [7]: 4.33 ± 0.82 h

From PMC9398717, “Comparison of Pharmacokinetic Profiles of 14 Major Bioactive Components in Normal and Arthritic Model Rats after Oral Administration of Angelicae pubescentis Radix by UPLC-MS/MS” (Evidence-based Complementary and Alternative Medicine : eCAM, 2022)
